These results are taken from patent US20150037375A1, “DOPING AGENTS AND POLYMERIC COMPOSITIONS THEREOF FOR CONTROLLED DRUG DELIVERY” (TRUSTEES OF BOSTON UNIVERSITY ET AL, priority 2011, published 2015).

Series [1] has as its system Lewis Lung Carcinoma (LLC) cells. Description: Cell viability (MTT) after 24 hour treatments with drug-loaded meshes, LLC cells.
Method: (§1) The meshes contained either 0.01, 0.1, or 1.0 w/w % drug (SN38 or CPT-11). The camptothecin release from these meshes was tested using a cell viability assay following 24 hour treatments with camptothecin-loaded or unloaded meshes. […] Individual camptothecin-loaded and unloaded meshes were placed in permeable filter supports (Polyester membrane insert, 3.0 μm pore size; Corning Incorporated, Corning, N.Y.) and maintained in SPM. Medium was changed periodically to ensure continued drug release. […] At designated time points, subconfluent cells were harvested and seeded on 12-well plates at 30,000 cells/well in SPM. After 24 hours, filter supports and meshes were transferred from holding wells to the wells containing tumor cells in 2 mL of fresh SPM. After 24 hours of co-incubation with tumor cells, films were returned to holding wells in fresh SPM until the subsequent time point. Five days after treatment, tumor cell viability was measured using a colorimetric MTT (3-(4,5-dimethyl-2-thiazolyl)-2,5-diphenyltetrazolium bromide) cell proliferation assay (Sigma, St. Louis, Mo.). Cell viability was calculated as the percentage of the positive control absorbance for each cell line at each time point.
Series [2] has as its system HT-29 colorectal cancer cells. The experiment in a line: In vitro cytotoxicity (MTS/MTT) of drug-loaded meshes, HT-29 cells.
Method: as §1
Series [3] is described as follows: Lactone form of SN-38 released from meshes. The note with it: control, bolus of SN-38 added to pH 6.4 PBS for an hour. The method, then: An additional release study was performed to determine if the active form of SN-38 was preserved within electrospun meshes.

≈ marks a conversion by molar mass, not a printed value.

For `CCc1c2c(nc3ccc(O)cc13)-c1cc3c(c(=O)n1C2)COC(=O)[C@]3(O)CC` [SN-38, 7-ethyl-10-hydroxycamptothecin], the IC-50 entry in series [1] is given as “≈ 8 ng/mL”. The same compound had an IC50 in series [2] of 3.4 ng/mL (≈ 8.66 nM). For the same compound, in series [3], the “SN-38 remaining in the active lactone form” value stood at 73%.
